Measured values taken from patent US6632808B1 (priority 1998, dated 2003).

Tested on: hamster 263K scrapie
Design: species or system transgenic mice over-expressing the hamster PrP-sen (Tg7)
Conditions: in vivo

For Phthalocyanine tetrasulfonate [PcTS], the “animals surviving a minimum of 200 days” value was 60%, the “increase of survival times, late treatment” value was “one week” and the “survival longer than untreated controls” value was “approximately 120 days”. The “survivors at >170 Dpi” value was 80%.
